# Laboratory results as given in US20230135635A1, “INHIBITORS OF ULK1/2 AND METHODS OF USING SAME” (SALK INSTITUTE FOR BIOLOGICAL STUDIES, priority 2020, published 2023).
# Target: T1, recombinant human ULK1 protein (1-649) (Homo sapiens, UniProt O75385)
# T1 construct: recombinant human ULK1 protein (1-649, SignalChem #U01-11G); purchased SignalChem U01-11G
# T1 sequence (O75385 1-649): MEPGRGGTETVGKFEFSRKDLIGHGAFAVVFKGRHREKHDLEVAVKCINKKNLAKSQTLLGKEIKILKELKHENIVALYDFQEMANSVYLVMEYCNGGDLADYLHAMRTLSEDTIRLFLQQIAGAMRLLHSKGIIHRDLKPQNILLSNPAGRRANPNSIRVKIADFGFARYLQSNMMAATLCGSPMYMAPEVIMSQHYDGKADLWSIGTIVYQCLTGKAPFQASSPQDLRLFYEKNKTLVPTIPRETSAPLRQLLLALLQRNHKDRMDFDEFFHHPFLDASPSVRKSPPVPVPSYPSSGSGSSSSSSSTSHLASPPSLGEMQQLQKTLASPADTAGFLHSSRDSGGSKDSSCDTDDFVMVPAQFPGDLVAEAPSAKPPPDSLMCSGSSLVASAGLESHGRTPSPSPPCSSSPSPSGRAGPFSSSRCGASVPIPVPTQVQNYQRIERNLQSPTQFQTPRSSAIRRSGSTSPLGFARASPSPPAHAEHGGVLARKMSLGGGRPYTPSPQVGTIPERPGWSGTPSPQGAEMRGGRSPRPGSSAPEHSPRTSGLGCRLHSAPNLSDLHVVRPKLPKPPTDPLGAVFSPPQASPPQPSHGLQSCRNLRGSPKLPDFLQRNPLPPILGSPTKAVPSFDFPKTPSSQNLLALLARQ
# Assay: ULK1 inhibition assay (ADP Glo)
# Type: biochemical
# Procedure: Illustrative compounds of Formula I and related analogs are shown in Table 1 (along with their respective IC50 values for ULK1 inhibition assays). For ADP Glo assay, IC50s are represented nM, with A representing IC50<1 nM, B representing 10 nM>IC50>1 nM, and C representing IC50>10 nM. NT indicates the compound was not tested. ULK1 inhibition assays were performed in a 5 uL reaction volume containing 2 ug/mL recombinant human ULK1 protein (1-649, SignalChem #U01-11G) and 80 ug/mL myelin basic protein (MBP, Sigma-Aldrich #M1891) in the presence of 25 uM ATP (Sigma-Aldrich A7699). ULK 1 inhibition was assessed after one hour. Compounds were tested in triplicate in a 16-dose IC50 mode with 3-fold serial dilution and a starting dose of 30 uM. Staurosporine, a non-selective protein kinase inhibitor, was used in the assay as a positive control.
# According to another embodiment, the present disclosure provides methods of producing the above-defined compounds. The compounds may be synthesized using any suitable techniques. Advantageously, these compounds are conveniently synthesized from readily available starting materials. Synthetic chemistry transformations and methodologies useful in synthesizing the compounds described herein are known in the art and include, for example, those described in R. Larock, Comprehensive Organic Transformations (1989); T. W. Greene and P. G. M. Wuts, Protective Groups in Organic Synthesis, 2d. Ed. (1991); L. Fieser and M. Fieser, Fieser and Fieser's Reagents for Organic Synthesis (1994); and L. Paquette, ed., Encyclopedia of Reagents for Organic Synthesis (1995).). In general, synthesis and measurements of ULK1 inhibitory activity of the compounds described herein was performed using method analogous to those previously described in PCT International Application No. PCT/US2015/046777 which is hereby incorporated by reference in its entirety.
# [1] = Table 1, 25 uM ATP, MBP substrate, one hour
Structure (SMILES),IC50 [1] [µM],also measured
CNC(=S)Nc1cnc(Nc2ccc3c(c2)CCNC3)nc1NC1CC1 [Compound A24],> 0.01,–
"CNC(=O)c1ccccc1Nc1nc(Nc2ccc3c(c2)CCN(Cc2ccc(OC)cc2)C3)ncc1Br [Compound A129, 2-{5-Bromo-2-[2-(4-methoxy-benzyl)-1,2,3,4-tetrahydro-isoquinolin-6-ylamino]-pyrimidin-4-ylamino}-N-methyl-benzamide]",> 0.01,–
COc1cc(Nc2ncc(Br)c(Nc3ccccc3CN(C)CCO)n2)cc(OC)c1OC [Compound C23],–,IC50 (Table 3): > 0.1 µM
CC(=O)NCc1ccc(Nc2ncc(C(F)(F)F)c(NC3CC3)n2)cc1 [Compound D5],–,IC50 (Table 3): 0.005 to 0.1 µM
"CNC(=O)c1ccccc1Nc1nc(Nc2cc(OC)cc(OC)c2)ncc1Br [Compound E17, 2-((5-Bromo-2-((3,5-dimethoxyphenyl)amino)pyrimidin-4-yl)amino)-N-methylbenzamide]",–,IC50 (Table 3): 0.005 to 0.1 µM
COc1cc(Nc2ncc(Br)c(Oc3ccccc3C(=O)N(C)CC#N)n2)cc(OC)c1OC [Compound B45],–,IC50 (Table 2): 0.1 to 1 µM
CN1CCc2cc(Nc3ncc(C(N)=O)c(NC4CC4)n3)ccc2C1 [Compound A64],< 0.001,–
FC(F)(F)c1cnc(Nc2ccc3c(c2)CCN(CC2CNC2)C3)nc1NC1CC1 [Compound A41],< 0.001,–
COC(=O)c1ccccc1Oc1nc(Nc2ccc3[nH]cnc3c2)ncc1Br [Compound B22],–,IC50 (Table 2): > 1 µM
COC(=O)c1ccccc1Oc1nc(Nc2cc(OC)c(OC)c(OC)c2)ncc1Br [Compound B2],–,IC50 (Table 2): < 0.1 µM
NCC(=O)N1CCc2ccc(Nc3ncc(C(F)(F)F)c(NC4CC4)n3)cc2C1 [Compound A83],0.001 to 0.01,–
"CNC(=O)c1ccccc1Nc1nc(Nc2ccc3c(c2)CCN(Cc2ccncc2)C3)ncc1Br [Compound A131, 2-[5-Bromo-2-(2-pyridin-4-ylmethyl-1,2,3,4-tetrahydro-isoquinolin-6-ylamino)-pyrimidin-4-ylamino]-N-methyl-benzamide]",> 0.01,–
"CNC(=O)c1ccccc1Nc1nc(Nc2ccc3c(c2)CN(Cc2ccncc2)CC3)ncc1Br [Compound A162, 2-[5-Bromo-2-(2-pyridin-4-ylmethyl-1,2,3,4-tetrahydro-isoquinolin-7-ylamino)-pyrimidin-4-ylamino]-N-methyl-benzamide]",> 0.01,–
"Oc1nc(Nc2ccc3c(c2)OCO3)ncc1C(F)(F)F [Compound B53, 2-(Benzo[d][1,3]dioxol-5-ylamino)-5-(trifluoromethyl)pyrimidin-4-ol]",–,IC50 (Table 2): > 1 µM
CC(=O)Nc1ccc(Nc2ncc(Br)c(Nc3ccccc3CO)n2)cc1 [Compound C7],–,IC50 (Table 3): 0.005 to 0.1 µM
COc1cc(Nc2ncc(Br)c(Oc3ccccc3C(=O)NCCN(C)C)n2)cc(OC)c1OC [Compound B7],–,IC50 (Table 2): > 1 µM
"CNC(=O)c1ccccc1Oc1nc(Nc2ccc3c(c2)OCO3)ncc1C(F)(F)F [Compound B52, 2-((2-(Benzo[d][1,3]dioxol-5-ylamino)-5-(trifluoromethyl)pyrimidin-4-yl)oxy)-N-methyl benzamide]",–,IC50 (Table 2): > 1 µM
FC(F)(F)c1cnc(Nc2ccc3c(c2)CCN(CC2OCCO2)C3)nc1NC1CC1 [Compound A17],< 0.001,–
FC(F)(F)c1cnc(Nc2ccc3c(c2)CN(Cc2ccoc2)CC3)nc1NC1CC1 [Compound A101],< 0.001,–
COC(=O)c1ccccc1Oc1nc(Nc2ccc(N3CCNCC3)cc2)ncc1Br [Compound B47],–,IC50 (Table 2): > 1 µM
CS(=O)(=O)N1CCc2cc(Nc3ncc(C(F)(F)F)c(NC4CC4)n3)ccc2C1 [Compound A12],0.001 to 0.01,–
COC(=O)c1ccccc1Oc1nc(Nc2cccc(OC(F)(F)F)c2)ncc1Br [Compound B40],–,IC50 (Table 2): > 1 µM

Structure (SMILES),IC50 [1] [µM],also measured
N[C@@H](CC(=O)O)C(=O)N1CCc2cc(Nc3ncc(C(F)(F)F)c(NC4CC4)n3)ccc2C1 (racemic) [Compound A66],< 0.001,–
O=C(C1CCN1)N1CCc2cc(Nc3ncc(C(F)(F)F)c(NC4CC4)n3)ccc2C1 (stereo not shown) [Compound A90],0.001 to 0.01,–
CCNC(=O)N1CCc2cc(Nc3ncc(C(F)(F)F)c(NC4CC4)n3)ccc2C1 [Compound A6],0.001 to 0.01,–
NCCN1CCc2cc(Nc3ncc(C(F)(F)F)c(NC4CC4)n3)ccc2C1 [Compound A34],< 0.001,–
COc1cc(Nc2ncc(Br)c(Nc3ccccc3CN(C)CC#N)n2)cc(OC)c1OC [Compound C26],–,IC50 (Table 3): 0.005 to 0.1 µM
COC(=O)c1ccccc1Oc1nc(Nc2cc(C)c(C)c(C)c2)ncc1Br [Compound B16],–,IC50 (Table 2): > 1 µM
"CNC(=O)c1ccccc1Nc1nc(Nc2ccc(OC(F)F)cc2)ncc1Br [Compound E18, 2-((5-Bromo-2-((4-(difluoromethoxy)phenyl)amino)pyrimidin-4-yl)amino)-N-methylbenzamide]",–,IC50 (Table 3): > 0.1 µM
COC(=O)c1ccccc1Oc1nc(Nc2ccc(SC)cc2)ncc1Br [Compound B32],–,IC50 (Table 2): > 1 µM
FC(F)(F)c1cnc(Nc2ccc3c(c2)CCN(Cc2ccoc2)C3)nc1NC1CC1 [Compound A92],0.001 to 0.01,–
N[C@@H](CO)C(=O)N1CCc2ccc(Nc3ncc(C(F)(F)F)c(NC4CC4)n3)cc2C1 [Compound A96],> 0.01,–
FC(F)(F)c1cnc(Nc2ccc3c(c2)CCN(CC2CCNC2)C3)nc1NC1CC1 (stereo not shown) [Compound A43],< 0.001,–
FC(F)(F)c1cnc(Nc2ccc3c(c2)CNCC3)nc1NC1CC1 [Compound A16],< 0.001,–
O=C(O)CCN1CCc2cc(Nc3ncc(C(F)(F)F)c(NC4CC4)n3)ccc2C1 [Compound A7],< 0.001,–
CN1CCc2cc(Nc3ncc(Br)c(NC4CC4)n3)ccc2C1 [Compound A65],< 0.001,–
COC(=O)c1ccccc1Oc1nc(Nc2ccc(C(F)(F)F)cc2)ncc1Br [Compound B42],–,IC50 (Table 2): > 1 µM
O=S(=O)(C1CC1)N1CCc2cc(Nc3ncc(C(F)(F)F)c(NC4CC4)n3)ccc2C1 [Compound A116],0.001 to 0.01,–
CC(O)CN1CCc2cc(Nc3ncc(C(F)(F)F)c(NC4CC4)n3)ccc2C1 (stereo not shown) [Compound A70],< 0.001,–
FC(F)(F)c1cnc(Nc2ccc3c(c2)CN(Cc2ccco2)CC3)nc1NC1CC1 [Compound A89],0.001 to 0.01,–
CN1CCN(c2ccc(Nc3ncc(Br)c(Nc4ccccc4CO)n3)cc2)CC1 [Compound C9],–,IC50 (Table 3): < 0.005 µM
COc1cc(Nc2ncc(Br)c(Nc3ccccc3CNC3CC3)n2)cc(OC)c1OC [Compound C24],–,IC50 (Table 3): > 0.1 µM
COCCN1CCc2ccc(Nc3ncc(C(F)(F)F)c(NC4CC4)n3)cc2C1 [Compound A86],< 0.001,–

# Now from value to compound, other results behind:
IC50 [1] [µM],Structure (SMILES),also measured
> 0.01,"CNC(=O)c1ccccc1Nc1nc(Nc2ccc3c(c2)CN(Cc2ccncn2)CC3)ncc1Br [Compound A160, 2-[5-Bromo-2-(2-pyrimidin-4-ylmethyl-1,2,3,4-tetrahydro-isoquinolin-7-ylamino)-pyrimidin-4-ylamino]-N-methyl-benzamide]",–
> 0.01,"CNC(=O)c1ccccc1Nc1nc(Nc2ccc3c(c2)CN(CC(=O)N2CCOCC2)CC3)ncc1Br [Compound A148, 2-{5-Bromo-2-[2-(2-morpholin-4-yl-2-oxo-ethyl)-1,2,3,4-tetrahydro-isoquinolin-7-ylamino]-pyrimidin-4-ylamino}-N-methyl-benzamide]",–
> 0.01,"CNC(=O)c1ccccc1Nc1nc(Nc2ccc3c(c2)CN(CCC(=O)O)CC3)ncc1Br [Compound A164, 3-{7-[5-Bromo-4-(2-methylcarbamoyl-phenylamino)-pyrimidin-2-ylamino]-3,4-dihydro-1H-isoquinolin-2-yl}-propionic acid]",–
> 0.01,"CNCC(=O)N1CCc2cc(Nc3ncc(Br)c(Nc4ccccc4C(=O)NC)n3)ccc2C1 [Compound A133, 2-{5-Bromo-2-[2-(2-methylamino-acetyl)-1,2,3,4-tetrahydro-isoquinolin-6-ylamino]-pyrimidin-4-ylamino}-N-methyl-benzamide]",–
< 0.001,CN(C)c1ccc(CN2CCc3cc(Nc4ncc(C(F)(F)F)c(NC5CC5)n4)ccc3C2)cc1 [Compound A71],–
> 0.01,"CNC(=O)c1ccccc1Oc1nc(Nc2ccc3c(c2)CCN(CCOC)C3)ncc1Cl [Compound A124, 2-((5-chloro-2-((2-(2-methoxyethyl)-1,2,3,4-tetrahydroisoquinolin-6-yl)amino)pyrimidin-4-yl)oxy)-N-methylbenzamide]",–
